Laboratory results reported in patent publication US20140364428A1, “5-(3-AMINOPHENYL)-5-ALKYL-5,6-DIHYDRO-2H-[1,4]OXAZIN-3-AMINE DERIVATIVES” (Janssen Pharmaceutica NV, priority 2011, published 2014).

Columns and labels:
BACE1 = target: T1, BACE1 (Homo sapiens, UniProt P56817); assay: Biochemical FRET based assay; conditions: recombinant BACE1 protein, APP derived 13 amino acids peptide substrate ('Swedish' mutation), 120 minutes at room temperature, pH 5.0; read-out: Biochemical FRET based assay pIC50 (converted)
T1 construct: recombinant BACE1 protein in a final concentration of 1 mg/ml
Description: This assay is a Fluorescence Resonance Energy Transfer Assay (FRET) based assay. The substrate for this assay is an APP derived 13 amino acids peptide that contains the ‘Swedish’ Lys-Met/Asn-Leu mutation of the amyloid precursor protein (APP) beta-secretase cleavage site. This substrate also contains two fluorophores: (7-methoxycoumarin-4-yl) acetic acid (Mca) is a fluorescent donor with excitation wavelength at 320 nm and emission at 405 nm and 2,4-Dinitrophenyl (Dnp) is a proprietary quencher acceptor. […] Upon cleavage by BACE1, the fluorophore Mca is separated from the quenching group Dnp, restoring the full fluorescence yield of the donor. The increase in fluorescence is linearly related to the rate of proteolysis.
Briefly in a 384-well format recombinant BACE1 protein in a final concentration of 1 mg/ml is incubated for 120 minutes at room temperature with […] in incubation buffer (40 mM Citrate buffer pH 5.0, 0.04% PEG, 4% DMSO) in the absence or presence of compound. Next the amount of proteolysis is directly measured by fluorescence measurement at T=0 and T=120 (excitation at 320 nm and emission at 405 nm). Results are expressed in RFU (Relative Fluorescence Units), as difference between T120 and TO.
(§1) A best-fit curve is fitted by a minimum sum of squares method to the plot of % Controlmin versus compound concentration. From this an IC50 value (inhibitory concentration causing 50% inhibition of activity) can be obtained.

[1] = tested on: Abeta 1-42 produced and secreted into the medium of human neuroblastoma SKNBE2 cells; assay: Cellular αLisa assay in SKNBE2 cells, Abeta 1-42; type: cell-based; conditions: SKNBE2 cells expressing wild type hAPP695, incubated for 18 hours, read-out: Cellular αLisa assay in SKNBE2 cells Abeta 42 pIC50 (converted)
Procedure: (§2) In two αLisa assays the levels of Abeta total and Abeta 1-42 produced and secreted into the medium of human neuroblastoma SKNBE2 cells are quantified. The assay is based on the human neuroblastoma SKNBE2 expressing the wild type Amyloid Precursor Protein (hAPP695). The compounds are diluted and added to these cells, incubated for 18 hours and then measurements of Abeta 1-42 and Abeta total are taken. Abeta total and Abeta 1-42 are measured by sandwich αLisa. αLisa is a sandwich assay using biotinylated antibody AbN/25 attached to streptavidin coated beads and antibody Ab4G8 or cAb42/26 conjugated acceptor beads for the detection of Abeta total and Abeta 1-42 respectively. In the presence of Abeta total or Abeta 1-42, the beads come into close proximity. The excitation of the donor beads provokes the release of singlet oxygen molecules that trigger a cascade of energy transfer in the acceptor beads, resulting in light emission. Light emission is measured after 1 hour incubation (excitation at […] and emission at 615 nm).
as §1

[2] = tested on: Abeta total produced and secreted into the medium of human neuroblastoma SKNBE2 cells; assay: Cellular αLisa assay in SKNBE2 cells, Abeta total; type: cell-based; conditions: SKNBE2 cells expressing wild type hAPP695, incubated for 18 hours, read-out: Cellular αLisa assay in SKNBE2 cells Abetatotal pIC50 (converted)
Procedure: as §2, §1

T1 sequence (P56817 46-501): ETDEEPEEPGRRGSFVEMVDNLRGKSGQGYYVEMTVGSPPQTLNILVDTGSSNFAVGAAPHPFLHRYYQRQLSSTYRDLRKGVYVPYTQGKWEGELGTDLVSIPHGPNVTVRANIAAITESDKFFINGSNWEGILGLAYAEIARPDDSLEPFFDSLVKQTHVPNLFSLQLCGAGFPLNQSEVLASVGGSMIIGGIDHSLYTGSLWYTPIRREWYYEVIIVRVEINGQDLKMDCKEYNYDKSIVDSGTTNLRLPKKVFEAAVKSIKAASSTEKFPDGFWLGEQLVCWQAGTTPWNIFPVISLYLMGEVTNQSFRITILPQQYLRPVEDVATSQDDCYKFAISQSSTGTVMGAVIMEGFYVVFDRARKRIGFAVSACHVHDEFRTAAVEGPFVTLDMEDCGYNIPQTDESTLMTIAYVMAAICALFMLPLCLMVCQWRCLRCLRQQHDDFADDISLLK

Compound | IC50 (BACE1) | IC50 [1] | IC50 [2] | melting point
COc1cccnc1Nc1cccc([C@@]2(C3CC3)N=C(N)CO[C@@]2(F)C(F)(F)F)c1 [Compound 1, (5R,6S)-5-cyclopropyl-6-fluoro-5-{3-[(3-methoxypyridin-2-yl)amino]phenyl}-6-(trifluoromethyl)-5,6-dihydro-2H-1,4-oxazin-3-amine] | 26.3 nM | 60.3 nM | 53.7 nM | 
COc1cccnc1Nc1ccc(F)c([C@@]2(C)N=C(N)COC2=C(F)F)c1 [Compound 3, (5R)-6-(difluoromethylidene)-5-{2-fluoro-5-[(3-methoxyPyridin-2-yl)amino]phenyl}-5-methyl-5,6-dihydro-2H-1,4-oxazin-3-amine] | 759 nM | 105 nM | 89.1 nM | 
COc1cccnc1Nc1ccc(F)c([C@@]2(C)N=C(N)CO[C@H]2C(F)(F)F)c1 [Compound 6, (5R,6R)-5-{2-fluoro-5-[(3-methoxypyridin-2-yl)amino]phenyl}-5-methyl-6-(trifluoromethyl)-5,6-dihydro-2H-1,4-oxazin-3-amine] | 138 nM | 21.4 nM | 20.9 nM | 
CC1(c2cc(Nc3ncccc3C#N)ccc2F)N=C(N)COC1F (stereo not shown) [Compound 9] | 224 nM | 129 nM | 87.1 nM | 

Now from value to molecule:

IC50 (BACE1) | IC50 [1] | IC50 [2] | melting point | Compound
58.9 nM | 9.12 nM | 10.5 nM | 136.93 °C | COc1cccnc1Nc1ccc(F)c([C@@]2(C)N=C(N)COC2C(F)F)c1 (single isomer, unassigned) [Compound 4, (5R,6R*)-6-(Difluoromethyl)-5-{2-fluoro-5-[(3-methoxypyridin-2-yl)amino]phenyl}-5-methyl-5,6-dihydro-2H-1,4-oxazin-3-amine]
162 nM | 24 nM | 19.5 nM |  | COc1cccnc1Nc1ccc(F)c([C@@]2(C)N=C(N)CO[C@@H]2F)c1 [Compound 2, (5R,6R)-6-fluoro-5-{2-fluoro-5-[(3-methoxypyridin-2-yl)amino]phenyl}-5-methyl-5,6-dihydro-2H-1,4-oxazin-3-amine]
1950 nM | 1260 nM | 1100 nM |  | C[C@]1(c2cc(Nc3ncccn3)ccc2F)N=C(N)CO[C@@H]1F [Compound 5, (5R,6R)-6-fluoro-5-[2-fluoro-5-(pyrimidin-2-ylamino)phenyl]-5-methyl-5,6-dihydro-2H-1,4-oxazin-3-amine]
3720 nM | 759 nM | 832 nM |  | C[C@]1(c2cc(Nc3ncccn3)ccc2F)N=C(N)CO[C@H]1C(F)(F)F [Compound 7, (5R,6R)-5-[2-fluoro-5-(pyrimidin-2-ylamino)phenyl]-5-methyl-6-(trifluoromethyl)-5,6-dihydro-2H-1,4-oxazin-3-amine]
309 nM | 129 nM | 138 nM |  | COc1nccnc1Nc1ccc(F)c([C@@]2(C)N=C(N)CO[C@@H]2F)c1 [Compound 8, (5R,6R)-6-fluoro-5-{2-fluoro-5-[(3-methoxypyrazin-2-yl)amino]phenyl}-5-methyl-5,6-dihydro-2H-1,4-oxazin-3-amine]
